# Target: T1, human FXR (NR1H4) (Homo sapiens, UniProt Q96RI1)
# T1 sequence (Q96RI1 1-486): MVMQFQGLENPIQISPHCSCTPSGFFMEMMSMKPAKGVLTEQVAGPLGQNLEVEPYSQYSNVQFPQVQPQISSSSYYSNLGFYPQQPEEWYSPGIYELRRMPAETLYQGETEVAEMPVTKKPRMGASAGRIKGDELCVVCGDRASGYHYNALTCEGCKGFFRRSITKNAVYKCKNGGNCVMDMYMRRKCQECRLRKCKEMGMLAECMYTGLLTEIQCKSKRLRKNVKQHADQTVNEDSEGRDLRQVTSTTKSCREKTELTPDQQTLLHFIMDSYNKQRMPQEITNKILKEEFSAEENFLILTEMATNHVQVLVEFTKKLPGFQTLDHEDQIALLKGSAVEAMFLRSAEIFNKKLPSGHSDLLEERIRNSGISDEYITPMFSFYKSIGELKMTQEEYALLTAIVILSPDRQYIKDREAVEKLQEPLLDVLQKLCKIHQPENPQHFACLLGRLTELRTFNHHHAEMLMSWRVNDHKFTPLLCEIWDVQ
# Experiment: Human FXR (NR1H4) Assay (Gal4 promoter driven luciferase reporter, Indigo Bioscience kit IB00601)
# Assay type: cell-based
# Details: FXR agonistic potency; CHO reporter cells expressing human NR1H4; 22 hours incubation; luciferase readout
# Source text: Determination of a ligand mediated Gal4 promoter driven transactivation to quantify ligand binding mediated activation of FXR. FXR Reporter Assay kit purchased from Indigo Bioscience (Catalogue number: IB00601) to determine the potency and efficacy of compound developed by Enanta that can induce FXR activation. The principle application of this reporter assay system is to quantify functional activity of human FXR. The assay utilizes non-human mammalian cells, CHO (Chinese hamster ovary) cells engineered to express human NR1H4 protein (referred to as FXR). Reporter cells also incorporate the cDNA encoding beetle luciferase which catalyzes the substrates and yields photon emission. Luminescence intensity of the reaction is quantified using a plate-reading luminometer, Envision. Reporter Cells include the luciferase reporter gene functionally linked to an FXR responsive promoter. Thus, quantifying changes in luciferase expression in the treated reporter cells provides a sensitive surrogate measure of the changes in FXR activity. […] The assay is according to the manufacturer's instructions. In brief, the assay was performed in white, 96 well plates using final volume of 100 uL containing cells with different doses of compounds. Retrieve Reporter Cells from −80° C. storage. Perform a rapid thaw of the frozen cells by transferring a 10 ml volume of 37° C. cell recovery medium into the tube of frozen cells. Recap the tube of Reporter Cells and immediately place it in a 37° C. water bath for 5-10 minutes. Retrieve the tube of Reporter Cell Suspension from the water bath. Sanitize the outside surface of the tube with a 70% alcohol swab, and then transfer it into the cell culture hood. Dispense 90 μl of cell suspension into each well of the 96-well Assay Plate. Transfer the plate into 37° C. incubator, allowing the cells adherent to the bottom of the well. Dilute compounds in Dilution Plate (DP), and administrate to cells at Assay Plate (AP). DMSO content of the samples was kept at 0.2%. Cells were incubated for additional 22 hours before luciferase activities were measured. Thirty minutes before intending to quantify FXR activity, remove Detection Substrate and Detection Buffer from the refrigerator and place them in a low-light area so that they may equilibrate to room temperature. Remove the plate's lid and discard all media contents by ejecting it into an appropriate waste container. Gently tap the inverted plate onto a clean absorbent paper towel to remove residual droplets. Cells will remain tightly adhered to well bottoms. Add 100 μl of luciferase detection reagent to each well of the assay plate. Allow the assay plate to rest at room temperature for at least 5 minutes following the addition of LDR. Set the instrument (Envision) to perform a single 5 second “plate shake” prior to reading the first assay well. Read time may be 0.5 second (500 mSec) per well.
row,Compound,EC50 [nM]
1,CC[C@H]1[C@@H](O)[C@@H]2[C@H](C[C@H](O)[C@]3(C)[C@@H]([C@H](C)COC(=O)NS(=O)(=O)c4ccc(OC(C)C)cc4)CC[C@@H]23)[C@@]2(C)CC[C@@H](O)C[C@@H]12 [Example 31],> 100
2,CC[C@H]1[C@@H](O)[C@@H]2[C@H](C[C@H](O)[C@]3(C)[C@@H]([C@H](C)COC(=O)NS(=O)(=O)c4ccc5c(c4)CCC(C)(C)O5)CC[C@@H]23)[C@@]2(C)CC[C@@H](O)C[C@@H]12 [Example 32],> 100
3,CC[C@H]1[C@@H](O)[C@@H]2[C@H](CC[C@]3(C)[C@@H]([C@H](C)COC(=O)NS(=O)(=O)c4ccc5c(c4)CCC(C)(C)O5)CC[C@@H]23)[C@@]2(C)CC[C@H](O)C[C@@H]12 [Example 33],< 1
4,CC[C@H]1[C@@H](O)[C@@H]2[C@H](CC[C@]3(C)[C@@H]([C@H](C)COC(=O)NS(=O)(=O)c4ccc5c(c4)CCC(C)(C)O5)CC[C@@H]23)[C@@]2(C)CCC(=O)C[C@@H]12 [Example 34],< 1
